This passage reports Activity results from ChEMBL document CHEMBL4477270, “Design, synthesis, and protein methyltransferase activity of a unique set of constrained amine containing compounds” (Bioorg Med Chem Lett, 2016).

The target in experiment [1] is T1, Histone-lysine N-methyltransferase NSD3 (Homo sapiens) (UniProt Q9BZ95).
T1 sequence (whole entry): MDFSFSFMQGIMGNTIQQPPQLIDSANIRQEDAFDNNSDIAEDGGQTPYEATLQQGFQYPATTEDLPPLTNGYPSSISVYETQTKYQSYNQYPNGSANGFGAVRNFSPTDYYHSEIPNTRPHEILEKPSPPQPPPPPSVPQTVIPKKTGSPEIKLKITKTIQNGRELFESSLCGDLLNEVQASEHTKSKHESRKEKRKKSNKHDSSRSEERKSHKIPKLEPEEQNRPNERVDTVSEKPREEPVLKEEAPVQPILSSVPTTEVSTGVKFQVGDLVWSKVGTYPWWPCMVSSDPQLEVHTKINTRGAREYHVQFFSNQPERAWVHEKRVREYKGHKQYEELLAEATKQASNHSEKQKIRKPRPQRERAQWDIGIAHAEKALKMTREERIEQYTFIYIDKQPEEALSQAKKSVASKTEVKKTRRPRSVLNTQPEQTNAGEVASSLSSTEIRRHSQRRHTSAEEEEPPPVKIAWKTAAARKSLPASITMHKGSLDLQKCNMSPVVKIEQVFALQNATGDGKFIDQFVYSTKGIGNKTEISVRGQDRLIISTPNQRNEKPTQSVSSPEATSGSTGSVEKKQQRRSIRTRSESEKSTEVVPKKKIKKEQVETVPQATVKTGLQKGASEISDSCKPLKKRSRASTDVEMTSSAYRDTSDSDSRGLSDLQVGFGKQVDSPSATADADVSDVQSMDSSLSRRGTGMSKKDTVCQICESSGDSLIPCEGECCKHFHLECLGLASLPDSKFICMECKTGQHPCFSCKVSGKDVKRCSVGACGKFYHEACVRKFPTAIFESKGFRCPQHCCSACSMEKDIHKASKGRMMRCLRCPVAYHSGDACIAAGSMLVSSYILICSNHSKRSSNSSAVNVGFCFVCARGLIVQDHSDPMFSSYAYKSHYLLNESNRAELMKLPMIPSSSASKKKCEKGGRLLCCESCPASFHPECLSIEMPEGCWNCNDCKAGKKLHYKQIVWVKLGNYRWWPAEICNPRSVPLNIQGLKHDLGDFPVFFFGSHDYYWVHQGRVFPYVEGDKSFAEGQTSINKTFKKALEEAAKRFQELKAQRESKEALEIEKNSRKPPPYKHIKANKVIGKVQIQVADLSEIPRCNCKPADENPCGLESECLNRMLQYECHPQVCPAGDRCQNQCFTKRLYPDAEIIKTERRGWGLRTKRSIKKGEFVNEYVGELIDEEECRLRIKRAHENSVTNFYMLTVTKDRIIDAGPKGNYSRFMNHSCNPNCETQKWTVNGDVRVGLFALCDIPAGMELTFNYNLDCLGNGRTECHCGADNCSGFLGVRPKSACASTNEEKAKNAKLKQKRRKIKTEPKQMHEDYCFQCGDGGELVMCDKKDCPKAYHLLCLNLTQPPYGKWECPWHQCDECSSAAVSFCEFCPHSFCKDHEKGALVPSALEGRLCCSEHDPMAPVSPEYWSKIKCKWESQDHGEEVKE
Kind of experiment: Inhibition of NSD3 (unknown origin) using biotin-labeled histone substrate assessed as residual activity at 50 uM in presence of [3H-Me]SAM by scintillation proximity assay relative to control.

In experiment [2] the target is T2, N-lysine methyltransferase KMT5A (Homo sapiens) (UniProt Q9NQR1).
T2 sequence (whole entry): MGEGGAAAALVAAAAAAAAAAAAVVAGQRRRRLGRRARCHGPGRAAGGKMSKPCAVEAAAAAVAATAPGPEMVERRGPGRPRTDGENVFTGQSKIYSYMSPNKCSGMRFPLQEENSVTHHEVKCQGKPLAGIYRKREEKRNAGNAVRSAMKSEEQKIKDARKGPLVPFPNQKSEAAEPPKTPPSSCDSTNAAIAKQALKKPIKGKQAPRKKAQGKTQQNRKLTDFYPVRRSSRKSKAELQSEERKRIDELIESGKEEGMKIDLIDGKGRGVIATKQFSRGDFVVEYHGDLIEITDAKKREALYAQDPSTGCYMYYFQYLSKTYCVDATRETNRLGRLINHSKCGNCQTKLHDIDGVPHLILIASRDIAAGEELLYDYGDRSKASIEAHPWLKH
Kind of experiment: Inhibition of SETD8 (unknown origin) using biotin-labeled histone H4 (1 to 24 residues) as substrate assessed as residual activity at 50 uM in presence of [3H-Me]SAM by scintillation proximity assay relative to control. For orientation: Scintillation proximity formats need no separation of bound from free tracer.

Experiment [3] deals with Histone-lysine N-methyltransferase SETDB1 (Homo sapiens) (UniProt Q15047). Kind of experiment: Inhibition of SETDB1 (unknown origin) using biotin-labeled histone substrate assessed as residual activity at 50 uM in presence of [3H-Me]SAM by scintillation proximity assay relative to control.
The target in experiment [4] is Histone-lysine N-methyltransferase, H3 lysine-79 specific (Homo sapiens) (UniProt Q8TEK3). Kind of experiment: Inhibition of DOT1L (unknown origin) using biotin-labeled histone substrate assessed as residual activity at 50 uM in presence of [3H-Me]SAM by scintillation proximity assay relative to control.
Experiment [5] deals with T3, Protein arginine N-methyltransferase 7 (Homo sapiens) (UniProt Q9NVM4).
T3 sequence (whole entry): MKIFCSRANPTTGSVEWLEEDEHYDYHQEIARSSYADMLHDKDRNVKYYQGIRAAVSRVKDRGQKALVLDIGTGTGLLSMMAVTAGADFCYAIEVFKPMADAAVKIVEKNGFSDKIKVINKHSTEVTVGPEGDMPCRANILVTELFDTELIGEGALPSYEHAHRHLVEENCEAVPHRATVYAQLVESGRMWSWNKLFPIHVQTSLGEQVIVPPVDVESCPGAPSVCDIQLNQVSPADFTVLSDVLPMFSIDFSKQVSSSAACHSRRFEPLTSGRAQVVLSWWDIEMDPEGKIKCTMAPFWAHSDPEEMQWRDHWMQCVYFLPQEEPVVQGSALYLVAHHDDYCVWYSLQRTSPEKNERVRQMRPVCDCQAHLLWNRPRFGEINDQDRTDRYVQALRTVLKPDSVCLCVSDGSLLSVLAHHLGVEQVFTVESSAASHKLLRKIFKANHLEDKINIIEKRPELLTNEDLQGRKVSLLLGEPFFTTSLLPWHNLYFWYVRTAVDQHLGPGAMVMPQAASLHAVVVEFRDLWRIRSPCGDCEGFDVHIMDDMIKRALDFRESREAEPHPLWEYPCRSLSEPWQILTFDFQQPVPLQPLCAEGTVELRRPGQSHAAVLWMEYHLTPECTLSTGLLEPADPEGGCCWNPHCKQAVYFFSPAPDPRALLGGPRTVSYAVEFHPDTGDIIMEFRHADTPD
Put plainly: Inhibition of PRMT7 (unknown origin) using biotin-labeled histone substrate assessed as residual activity at 50 uM in presence of [3H-Me]SAM by scintillation proximity assay relative to control.

Histone-lysine N-methyltransferase, H3 lysine-79 specific (Homo sapiens), sequence (Q8TEK3 whole entry, looked up): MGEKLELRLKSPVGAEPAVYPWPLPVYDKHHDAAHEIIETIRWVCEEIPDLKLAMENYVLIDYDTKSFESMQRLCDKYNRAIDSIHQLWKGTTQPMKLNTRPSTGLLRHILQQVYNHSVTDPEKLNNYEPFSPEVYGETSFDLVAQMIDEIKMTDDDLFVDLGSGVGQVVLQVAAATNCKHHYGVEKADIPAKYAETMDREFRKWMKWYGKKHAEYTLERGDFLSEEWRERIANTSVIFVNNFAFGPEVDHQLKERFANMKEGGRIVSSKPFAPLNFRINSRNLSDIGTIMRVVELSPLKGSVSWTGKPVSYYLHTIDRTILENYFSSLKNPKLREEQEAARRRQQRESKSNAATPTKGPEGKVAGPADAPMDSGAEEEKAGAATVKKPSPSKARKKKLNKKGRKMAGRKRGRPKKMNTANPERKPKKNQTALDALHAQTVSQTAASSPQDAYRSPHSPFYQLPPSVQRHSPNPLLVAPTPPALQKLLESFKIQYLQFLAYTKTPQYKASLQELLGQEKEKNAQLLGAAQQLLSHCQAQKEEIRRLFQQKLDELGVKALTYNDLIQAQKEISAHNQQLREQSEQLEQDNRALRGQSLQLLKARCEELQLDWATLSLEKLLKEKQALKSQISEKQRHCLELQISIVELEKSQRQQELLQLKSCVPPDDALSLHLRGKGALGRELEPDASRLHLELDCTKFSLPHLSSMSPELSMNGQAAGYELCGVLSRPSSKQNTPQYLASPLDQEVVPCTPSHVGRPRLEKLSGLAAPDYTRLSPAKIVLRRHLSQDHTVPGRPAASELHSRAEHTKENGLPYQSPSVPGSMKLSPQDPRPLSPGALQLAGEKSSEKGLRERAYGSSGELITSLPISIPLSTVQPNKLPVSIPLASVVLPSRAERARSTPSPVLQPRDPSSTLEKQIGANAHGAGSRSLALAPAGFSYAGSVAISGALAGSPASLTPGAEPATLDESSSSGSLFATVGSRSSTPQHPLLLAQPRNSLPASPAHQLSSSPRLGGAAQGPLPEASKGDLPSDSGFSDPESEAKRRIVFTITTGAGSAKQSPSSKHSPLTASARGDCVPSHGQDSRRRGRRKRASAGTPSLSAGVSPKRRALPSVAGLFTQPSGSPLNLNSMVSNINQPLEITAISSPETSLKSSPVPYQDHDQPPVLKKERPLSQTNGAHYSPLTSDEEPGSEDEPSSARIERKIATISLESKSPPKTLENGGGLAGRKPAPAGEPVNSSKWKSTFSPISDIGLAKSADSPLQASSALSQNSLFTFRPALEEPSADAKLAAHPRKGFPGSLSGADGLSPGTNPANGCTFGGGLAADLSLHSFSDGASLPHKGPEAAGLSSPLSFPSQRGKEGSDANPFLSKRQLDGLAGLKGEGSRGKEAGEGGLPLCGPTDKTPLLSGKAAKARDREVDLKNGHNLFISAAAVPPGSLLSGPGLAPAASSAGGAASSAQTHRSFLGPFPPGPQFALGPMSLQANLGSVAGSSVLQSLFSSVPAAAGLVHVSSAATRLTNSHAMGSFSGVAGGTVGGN

Turning to `CN1CCC2(CC1)CCN(C(=O)c1cccc(Br)c1)CC2`, the Activity is 110% in experiment [1]; 91% in experiment [2]; 108% in experiment [3]; 102% in experiment [4]; 107% in experiment [5].
For `CN1CCCC2(CCCN2C(=O)c2cccc(Br)c2)C1` (stereo not given) the same measures were 102%, 106%, 109%, 107% and 103%.
With `CN1CC[C@H]2CN(C(=O)c3cccc(Br)c3)C[C@H]21`, the Activity in experiment [1] amounted to 92%; in experiment [2], 105%; in experiment [3] it was 102%; in experiment [4] it was 91%; in experiment [5], 107%.
For `O=C(c1cccc(Br)c1)N1CCC2CNCC2C1` (stereo not given) the same measures were 102%, 103%, 95%, 94% and 111%.
For `CN1CCCCC12CCN(C(=O)c1cccc(Br)c1)CC2` the same measures were 97%, 43%, 108%, 101% and 101%.
For `O=C(c1cccc(Br)c1)N1CCC2(CCNCC2)CC1` the same measures were 98%, 101%, 110%, 103% and 103%.
For the compound `CN1CCCC2(CCCN(C(=O)c3cccc(Br)c3)C2)C1` (stereo not given), the Activity in experiment [1] worked out at 99%; in experiment [2] it was 107%; in experiment [3] it was 106%; in experiment [4] it was 96%; in experiment [5], 92%.
For `CN1CCCC12CCN(C(=O)c1cccc(Br)c1)CC2`, in that order: 101%, 103%, 101%, 100% and 103%.
For `O=C(c1cccc(Br)c1)N1CC[C@H]2NCC[C@H]2C1` the same measures were 107%, 113%, 100%, 99% and 106%.
`CN1CCC2(CCCN(C(=O)c3cccc(Br)c3)C2)C1` (stereo not given): the Activity in experiment [1] is 104%; in experiment [2] it was 106%; in experiment [3], 94%; in experiment [4] it was 97%; in experiment [5], 99%.
For `O=C(c1cccc(Br)c1)N1C[C@@H]2CCN[C@@H]2C1` the same measures were 94%, 105%, 107%, 94% and 109%.
For `O=C(c1cccc(Br)c1)N1C[C@@H]2CC3CCCN3[C@@H]2C1` (stereo not given in full) the same measures were 106%, 104%, 96%, 100% and 105%.
Consider `CN1CCC[C@@H]2CN(C(=O)c3cccc(Br)c3)C[C@@H]21`, for which the Activity stood at 98% in experiment [1]; 45% in experiment [2]; 101% in experiment [3]; 97% in experiment [4]; 107% in experiment [5].
Take `O=C(c1cccc(Br)c1)N1C[C@@H]2CC3CCCCN3[C@@H]2C1` (stereo not given in full): the Activity in experiment [1] was 94%; in experiment [2] it was 106%; in experiment [3] it was 101%; in experiment [4] it was 96%; in experiment [5], 107%.
For `O=C(c1cccc(Br)c1)N1CCCC2(CCNCC2)C1` the same measures were 93%, 105%, 102%, 96% and 101%.
As to `CN1CCCC12CCCN(C(=O)c1cccc(Br)c1)C2` (stereo not given), the Activity in experiment [1] came to 95%; in experiment [2], 96%; in experiment [3] it was 98%; in experiment [4] it was 94%; in experiment [5], 98%.
`CN1C[C@H]2CCCN(C(=O)c3cccc(Br)c3)[C@H]2C1`: the Activity is 92% in experiment [1]; 85% in experiment [2]; 101% in experiment [3]; 94% in experiment [4]; 96% in experiment [5].
For `C[N+]1(C)CCCCC12CCN(C(=O)c1cccc(Br)c1)CC2`, in that order: 99%, 49%, 97%, 96% and 94%.
Consider `O=C(c1cccc(Br)c1)N1CCC[C@@H]2CNC[C@@H]21`, for which the Activity in experiment [1] was 106%; in experiment [2], 103%; in experiment [3], 109%; in experiment [4], 96%; in experiment [5], 104%.
For `CN1CCC2(CCCN2C(=O)c2cccc(Br)c2)CC1`, in that order: 96%, 91%, 94%, 97% and 107%.
For `O=C(c1cccc(Br)c1)N1CCCC2(CCCCN2)C1` (stereo not given), in that order: 111%, 106%, 108%, 100% and 89%.
Consider `CN1CCCCC12CCCN(C(=O)c1cccc(Br)c1)C2` (stereo not given), for which the Activity in experiment [1] was found to be 100%; in experiment [2] it was 73%; in experiment [3], 105%; in experiment [4], 100%; in experiment [5], 104%.
